Measured values as given in patent US6900219B2, “ABCA-1 elevating compounds” (CV Therapeutics, Inc., priority 2002, dated 2005).

Tested on: ABCA-1 gene
Assay: compounds tested and found to elevate cellular expression of the ABCA-1 gene (Examples 1-6; test not named)
Format: cell-based
Experimental: Activity testing is conducted as described in those patents and patent applications referenced above, and in the Examples below, and by methods apparent to one skilled in the art.

Row | Compound | cellular expression of the ABCA-1 gene
1 | CCCCCCCC(=O)N1CCC2(CC1)OCCO2 [1-(8-aza-1,4-dioxaspiro[4.5]dec-8-yl)octan-1-one] | elevate cellular expression of the ABCA-1 gene
2 | CCc1c(C(=O)NCc2ccco2)cnn1-c1nc(-c2ccc(OC)cc2)cs1 [5-ethyl-1-[4-(4-methoxy-phenyl)-thiazol-2-yl]-1H-pyrazole-4-carboxylic acid (furan-2-ylmethyl)-amide] | elevate cellular expression of the ABCA-1 gene
3 | [4-(methylethyl)phenyl]-N-(4-oxo(1,3-thiazolin-2-yl))carboxamide | elevate cellular expression of the ABCA-1 gene
4 | CCOC(=O)CCN(C(=O)CCc1ccccc1)c1ccc(Br)cc1 [ethyl 3-[(4-bromophenyl)-N-(2-phenylethyl)carbonylamino]propanoate] | elevate cellular expression of the ABCA-1 gene
5 | Cc1ccc2cc(NC(=O)c3ccccc3F)ccc2n1 [(2-fluorophenyl)-N-(2-methyl(6-quinolyl))carboxamide] | elevate cellular expression of the ABCA-1 gene
6 | CS(=O)(=O)c1ccc2nc(NC(=O)c3cccs3)sc2c1 [N-[6-(methylsulfonyl)benzothiazol-2-yl]-2-thienylcarboxamide] | elevate cellular expression of the ABCA-1 gene
7 | CC(C)CN(C(=O)Nc1cccc(C(F)(F)F)c1)C(C)c1nc2ccccc2c(=O)n1-c1ccc2ccccc2c1 (stereo not drawn) [N-(2-methylpropyl)-N-[(3-(2-naphthyl)-4-oxo(3-hydroquinazolin-2-yl))ethyl]{[3-(trifluoromethyl)phenyl]amino}carboxamide] | elevate cellular expression of the ABCA-1 gene
8 | CC(=O)c1ccc(NC(=O)c2ccc(F)cc2)cc1 [N-(4-acetylphenyl)(4-fluorophenyl)carboxamide] | elevate cellular expression of the ABCA-1 gene
9 | O=C(Nc1ncc(-c2ccccc2)s1)c1ccc(C(F)(F)F)cc1F [[2-fluoro-4-(trifluoromethyl)phenyl]-N-(5-phenyl(1,3-thiazol-2-yl))carboxamide] | elevate cellular expression of the ABCA-1 gene
